From patent US10093630B2, “Pyrazole compounds and methods of making and using same” (ABIDE THERAPEUTICS, INC., priority 2014, dated 2018)

What was measured:
Assay in all cases: In vitro competitive activity-based protein profiling (gel-based, FP-Rh or HT-01 probe)
Format in all cases: biochemical
ABHD6 = biological target: T1, ABHD6 (Mus musculus, UniProt Q8R2Y0); details: for inhibition at 1 µM: 1 μM inhibitor, read-out: % Inhibition at 1 μM, C = ABHD6; for inhibition at 10 µM: 10 μM inhibitor, read-out: % Inhibition at 10 μM, C = ABHD6; for IC50: mouse brain membrane fraction or cell lysates, 30 min preincubation at 37° C., read-out: Mouse (IC50 value, nM) ABHD6
T1 construct: Proteomes (mouse brain membrane fraction or cell lysates); from tissue; host or cells: mouse brain membrane fraction (or cell lysates, not specified)
T1 sequence (Q8R2Y0 1-336): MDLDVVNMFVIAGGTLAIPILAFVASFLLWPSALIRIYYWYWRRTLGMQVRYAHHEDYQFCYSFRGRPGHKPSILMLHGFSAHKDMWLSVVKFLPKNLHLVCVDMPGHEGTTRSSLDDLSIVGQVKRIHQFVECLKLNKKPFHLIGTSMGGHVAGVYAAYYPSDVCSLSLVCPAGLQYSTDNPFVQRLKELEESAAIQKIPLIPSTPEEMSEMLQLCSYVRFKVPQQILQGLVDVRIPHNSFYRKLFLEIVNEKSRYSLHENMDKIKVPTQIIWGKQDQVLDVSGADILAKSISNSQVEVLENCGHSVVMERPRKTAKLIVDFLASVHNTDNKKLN
Outline: (§1)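 Gel-based read-out: fluorescent band intensity after SDS-PAGE reflected remaining hydrolase activity. Inhibitors were preincubated 30 min at 37° C with 1.0 mg/mL mouse brain membrane or lysate proteome before a further 30 min at 37° C with FP-Rh or HT-01 probe.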

FAAH = biological target: T2, FAAH (Mus musculus, UniProt O08914); details: for inhibition at 1 µM: 1 μM inhibitor, read-out: % Inhibition at 1 μM, B = FAAH; for inhibition at 10 µM: 10 μM inhibitor, read-out: % Inhibition at 10 μM, B = FAAH; for IC50: mouse brain membrane fraction or cell lysates, 30 min preincubation at 37° C., read-out: Mouse (IC50 value, nM) FAAH
T2 construct: Proteomes (mouse brain membrane fraction or cell lysates); from tissue; host or cells: mouse brain membrane fraction (or cell lysates, not specified)
T2 sequence (O08914 1-579): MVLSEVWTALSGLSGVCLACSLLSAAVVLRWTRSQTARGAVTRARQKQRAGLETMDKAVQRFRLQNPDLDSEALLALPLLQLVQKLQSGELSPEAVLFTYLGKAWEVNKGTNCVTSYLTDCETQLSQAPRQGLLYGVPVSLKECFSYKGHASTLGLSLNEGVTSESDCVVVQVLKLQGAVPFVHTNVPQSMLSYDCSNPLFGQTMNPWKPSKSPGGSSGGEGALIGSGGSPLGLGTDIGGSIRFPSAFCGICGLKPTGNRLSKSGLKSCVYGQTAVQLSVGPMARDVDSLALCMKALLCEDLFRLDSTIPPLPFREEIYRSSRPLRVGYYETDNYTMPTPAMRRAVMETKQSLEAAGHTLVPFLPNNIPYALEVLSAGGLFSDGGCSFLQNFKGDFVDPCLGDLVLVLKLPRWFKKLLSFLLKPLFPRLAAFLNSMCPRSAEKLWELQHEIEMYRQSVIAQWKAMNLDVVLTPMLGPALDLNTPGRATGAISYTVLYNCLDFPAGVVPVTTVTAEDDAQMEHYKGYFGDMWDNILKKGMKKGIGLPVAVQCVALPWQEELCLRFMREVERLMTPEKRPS
Outline: as §1

MAGL = biological target: T3, MAGL (Mus musculus, UniProt O35678); details: for inhibition at 1 µM: 1 μM inhibitor; for inhibition at 10 µM: 10 μM inhibitor; for IC50: mouse brain membrane fraction or cell lysates, 30 min preincubation at 37° C., read-out: Mouse (IC50 value, nM) MAGL
T3 construct: Proteomes (mouse brain membrane fraction or cell lysates); from tissue; host or cells: mouse brain membrane fraction (or cell lysates, not specified)
T3 sequence (O35678 1-303): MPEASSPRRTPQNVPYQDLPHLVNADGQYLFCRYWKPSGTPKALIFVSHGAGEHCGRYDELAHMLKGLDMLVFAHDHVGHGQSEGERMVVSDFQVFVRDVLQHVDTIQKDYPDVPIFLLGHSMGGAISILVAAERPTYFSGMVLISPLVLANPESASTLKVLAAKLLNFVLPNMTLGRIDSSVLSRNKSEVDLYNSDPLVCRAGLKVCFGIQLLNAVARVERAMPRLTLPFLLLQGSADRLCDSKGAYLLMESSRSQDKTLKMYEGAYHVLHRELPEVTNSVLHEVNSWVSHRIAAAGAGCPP
Outline: as §1

PLA2G7 = biological target: T4, PLA2G7 (Mus musculus, UniProt Q60963); details: for inhibition at 1 µM: 1 μM inhibitor, read-out: % Inhibition at 1 μM, D = PLA2G7; for inhibition at 10 µM: 10 μM inhibitor, read-out: % Inhibition at 10 μM, D = PLA2G7; for IC50: mouse brain membrane fraction or cell lysates, 30 min preincubation at 37° C.
T4 construct: Proteomes (mouse brain membrane fraction or cell lysates); from tissue; host or cells: mouse brain membrane fraction (or cell lysates, not specified)
T4 sequence (Q60963 22-440): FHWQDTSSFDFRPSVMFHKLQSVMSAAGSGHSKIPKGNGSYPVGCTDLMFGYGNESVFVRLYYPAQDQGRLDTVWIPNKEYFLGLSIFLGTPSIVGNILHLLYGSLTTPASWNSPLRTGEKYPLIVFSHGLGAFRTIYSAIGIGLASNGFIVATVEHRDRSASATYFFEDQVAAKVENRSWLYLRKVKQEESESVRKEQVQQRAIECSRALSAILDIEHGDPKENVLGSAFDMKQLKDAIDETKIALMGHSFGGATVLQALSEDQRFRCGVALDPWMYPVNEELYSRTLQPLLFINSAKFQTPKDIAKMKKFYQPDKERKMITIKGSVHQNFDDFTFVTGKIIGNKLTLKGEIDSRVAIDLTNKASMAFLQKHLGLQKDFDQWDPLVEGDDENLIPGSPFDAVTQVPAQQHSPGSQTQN
Outline: as §1

Row | Compound | inhibition at 1 µM (ABHD6) | inhibition at 10 µM (ABHD6) | IC50 (ABHD6) | inhibition at 1 µM (FAAH) | inhibition at 10 µM (FAAH) | IC50 (FAAH) | inhibition at 1 µM (MAGL) | inhibition at 10 µM (MAGL) | IC50 (MAGL) | inhibition at 1 µM (PLA2G7) | inhibition at 10 µM (PLA2G7) | IC50 (PLA2G7)
1 | O=C(N1CCN(Cc2ccc(Cl)c(Cl)c2)CC1)n1cc(Cl)cn1 [Example 211, (4-Chloro-1H-pyrazol-1-yl)(4-(3,4-dichlorobenzyl)piperazin-1-yl)methanone] | > 75% | > 75% | < 100 nM | > 75% | > 75% | < 100 nM | > 75% | > 75% | < 100 nM | < 25% | > 75% | 
2 | O=C(N1CCN(Cc2ccc(N3CCCC3)cc2)CC1)n1cc(Cl)cn1 [Example 212, (4-Chloro-1H-pyrazol-1-yl)(4-(4-(pyrrolidin-1-yl)benzyl)piperazin-1-yl)methanone] | > 75% | > 75% | 100 to 1000 nM | > 75% | > 75% | 100 to 1000 nM | > 75% | > 75% | < 100 nM | < 25% | > 75% | 
3 | O=C(N1CCN(Cc2ccc(C(F)(F)F)cc2)CC1)n1cc(Cl)cn1 [Example 213, (4-Chloro-1H-pyrazol-1-yl)(4-(4-(trifluoromethyl)benzyl)piperazin-1-yl)methanone] | > 75% | > 75% | < 100 nM | > 75% | > 75% | < 100 nM | > 75% | > 75% | < 100 nM | < 25% | > 75% | 100 to 1000 nM
4 | O=C(N1CCN(Cc2ccc(CN3CCOCC3)cc2)CC1)n1cc(Cl)cn1 [Example 214, (4-Chloro-1H-pyrazol-1-yl)(4-(4-(morpholinomethyl)benzyl)piperazin-1-yl)methanone] | > 75% |  |  | > 75% |  |  | > 75% |  |  | > 75% |  | 
5 | O=C(N1CCN(CC2CC2)CC1)n1cc(Cl)cn1 [Example 215, (4-Chloro-1H-pyrazol-1-yl)(4-(cyclopropylmethyl)piperazin-1-yl)methanone] | > 75% | > 75% |  | > 75% | > 75% |  | 25 to 75% | > 75% |  | < 25% | > 75% | 
6 | O=C(N1CCN(Cc2cccc(Oc3ccccc3)c2)CC1)n1cc(Cl)cn1 [Example 216, (4-Chloro-1H-pyrazol-1-yl)(4-(3-phenoxybenzyl)piperazin-1-yl)methanone] | > 75% |  | < 100 nM | > 75% |  | < 100 nM | > 75% |  | < 100 nM | < 25% |  | > 1000 nM
7 | O=C(N1CCN(Cc2ccc(N3CCOCC3)cc2)CC1)n1cc(Cl)cn1 [Example 217, (4-Chloro-1H-pyrazol-1-yl)(4-(4-morpholinobenzyl)piperazin-1-yl)methanone] | > 75% |  |  | > 75% |  |  | > 75% |  |  | > 75% |  | 
8 | Cc1cc(N2CCOCC2)ccc1CN1CCN(C(=O)n2cc(Cl)cn2)CC1 [Example 218, (4-Chloro-1H-pyrazol-1-yl)(4-(2-methyl-4-morpholinobenzyl)piperazin-1-yl)methanone] | > 75% |  | 100 to 1000 nM | > 75% |  | 100 to 1000 nM | > 75% |  | < 100 nM | > 75% |  | 100 to 1000 nM
9 | CN(Cc1cccc(-c2ccncc2)c1)C(=O)n1cc(-c2ccccc2)cn1 [Example 219, N-Methyl-4-phenyl-N-(3-(pyridin-4-yl)benzyl)-1H-pyrazole-1-carboxamide] | > 75% | > 75% | 100 to 1000 nM | > 75% | > 75% | < 100 nM | > 75% | > 75% | > 1000 nM | > 75% | > 75% | < 100 nM
10 | CN(Cc1cccc(-c2ccncc2)c1)C(=O)n1cc(Cl)cn1 [Example 220, 4-Chloro-N-methyl-N-(3-(pyridin-4-yl)benzyl)-1H-pyrazole-1-carboxamide] | > 75% | > 75% | 100 to 1000 nM | > 75% | > 75% | < 100 nM | > 75% | > 75% | < 100 nM | 25 to 75% | > 75% | > 1000 nM
11 | CN(Cc1cccc(-c2ccncc2)c1)C(=O)n1cc(C#N)cn1 [Example 221, 4-Cyano-N-methyl-N-(3-(pyridin-4-yl)benzyl)-1H-pyrazole-1-carboxamide] | > 75% | > 75% |  | > 75% | > 75% |  | > 75% | > 75% |  | 25 to 75% | < 25% | 
12 | CN(Cc1cccc(-c2ccncc2)c1)C(=O)n1cc(C(F)(F)F)cn1 [Example 222, N-methyl-N-(3-(pyridin-4-yl)benzyl)-4-(trifluoromethyl)-1H-pyrazole-1-carboxamide] | > 75% | > 75% |  | > 75% | > 75% |  | > 75% | > 75% |  | 25 to 75% | < 25% | 
13 | CNC(=O)c1cnn(C(=O)N2CCN(Cc3ccc(Cl)cc3)CC2)c1 [Example 223, 1-(4-(4-Chlorobenzyl)piperazine-1-carbonyl)-N-methyl-1H-pyrazole-4-carboxamide] | > 75% |  | < 100 nM | > 75% |  | 100 to 1000 nM | > 75% |  | 100 to 1000 nM | > 75% |  | 
14 | O=C(N1CCN(Cc2ccccc2Cl)CC1)n1cc(Cl)cn1 [Example 224, (4-Chloro-1H-pyrazol-1-yl)(4-(2-chlorobenzyl)piperazin-1-yl)methanone] | > 75% |  | 100 to 1000 nM | > 75% |  | 100 to 1000 nM | > 75% |  | < 100 nM | < 25% |  | 100 to 1000 nM
